Values joined by “and” are separate entries in the source; they are usually repeats but may differ in a detail not shown here. Identical values can stand only once. One block for each compound: values may come before it.
Experiments:
zebrafish embryos = settings: cited from earlier work; for Teratogenicity on zebrafish development: after 70 h of exposure (time point 72 hpf)
[1] = Quantification of compound in stock and culture medium relative to nominal concentration (LC-MS); type: physicochemical; settings: 96 hpf
Procedure: The control and test mediums were also kept in the same incubator until the last time point of the experiment. The embryo media were renewed every 48 h, to avoid medium acidification and oxygen deprivation. At each medium change and at the last time point of the experiment (Figure 9), the media exposed to the embryos were pooled and kept at −80 °C for further use (n = 3). Moreover, samples from the stock solutions kept at 28.5 °C ± 0.3 °C were also taken at 0 and 120 hpf (n = 3), whereas samples were only taken at 96 hpf for the metabolites medium (E-CBZ and HPPH).

[2] = test system: zebrafish embryos and larvae; assay: Morphological evaluation of zebrafish embryos/larvae exposed from 5¼ to 120 hpf; settings: for Significant effect on embryo/larva development after exposure to the metabolite: 5¼–120 hpf; for Teratogenicity in zebrafish (conclusion from morphological and analytical assessment): exposure 5¼–120 hpf
Procedure: Each experiment was performed in two biological replicates (n = 2, 20 embryos/replicate) and consisted of a medium control group (EMS), solvent control group(s) (EMS + 0.5% DMSO and/or EMS + 1% DMSO) and four dose groups. […] Embryos were reared until they reached the desired developmental stage, under the same environmental conditions as the adults (28.5 °C ± 0.3 °C with a 14/10 h light/dark cycle) in the incubator (TIN-IN35, Phoenix instrument, Garbsen, Germany).
For the metabolites, E-CBZ (≥98% purity, CAS number: 36507-30-9, Supelco, Merck, Darmstadt, Germany) and HPPH (98% purity, CAS number: 2784-27-2, Sigma-Aldrich®, Merck, Darmstadt, Germany), we only selected one high concentration, 250 µM (see Supplementary Table S1). […] A higher percentage of DMSO was used for E-CBZ for the optimum dissolution of E-CBZ in EMS. Immediately after the selection (see Section 4.1), twenty embryos were randomly distributed in each control and test group. Embryos were exposed at the latest at 5 hpf in a final volume of 300 µL medium at a density of a fish per well.
For each biological replicate (n = 2), zebrafish embryos were morphologically investigated at 5¼, 10, 24, 48, 72, 96 and 120 hpf (Figure 9) using an Olympus CKX41 microscope with an Olympus U-TV0.5XC-3 lighting and an Olympys 4x/0.16 Uplan APO microscope objective (Shinjuku, Tokyo, Japon) to follow the developmental stages described by Kimmel et al.. The 5¼- and 10-hpf time points served as control steps to identify unfertilized or coagulated eggs that were included unwittingly to the experiment and referenced as coagulated in the 24-hpf morphological sheet (see Supplementary Figure S3). A series of morphological parameters were explored, adapted from Nagel et al., depending on the different time points of interest and described previously by our group (see Supplementary Figure S3). All parameters were scored 0 if normal and 1 if malformed. This binary scale was used to facilitate the scoring and no gradation of the severity of the endpoints was evaluated in this study.

zebrafish embryos/larvae = assay: Quantification of parent compounds and metabolites in whole zebrafish embryos/larvae homogenate extracts; settings: for Uptake by embryos and larvae (quantified in homogenate extracts): 24 and 120 hpf, CBZ, PHE 31.25, 85, 250 µM, E-CBZ, HPPH 250 µM
Procedure: In three biological replicates (n = 3; 20 embryos/replicate) and at the two desired developmental stages (24 and 120 hpf), embryos/larvae of each test and control group were pooled and then rinsed three times with cold EMS (4 °C) on a mesh (Cell strainer […] Nylon, Steril Falcon®, Durham, NC, USA). Embryos collected at 24 hpf were not dechorionated, as the focus of this study was on the potential formation of the mammalian active metabolites. Moreover, it was argued that the chorion was more permeable than previously believed and that dechorionation could increase background malformations during gross morphology investigation. Embryos/larvae were then transferred and kept for five min in cryotubes (Cryo.S™, Greiner Bio-One, Frickenhausen, Germany) filled with 500 µL of cold embryo medium (4 °C), before being snap-frozen in liquid nitrogen and kept, for later use, at −80 °C (Figure 9).
The extraction preparation was based on Brox et al. for two developmental stages, 24 and 120 hpf, and performed in triplicate for each test group (n = 3, 20 embryos/replicate) (Figure 9). On the day of the extraction procedure, frozen samples (see Section 4.2.1) were thawed on ice and EMS was removed. A volume of 500 µL of acetonitrile (ACN) (purity ≥99.9%, Merck, Darmstadt, Germany) containing the internal standard lamotrigine, LAMO, (≥98% purity, CAS number: 84057-84-1, Sigma-Aldrich, Merck, Darmstadt, Germany) was then added to each tube to reach a final concentration of 0.39 µM, after dilution in HPLC-grade water. Samples were vortexed (VM3, CAT, Germany) for 5 min at a 2000 rotation/min speed, before being placed on ice and ultrasonicated with an Ultrasonic Processor VCX 130 (Sonics, Newtown, CT, USA) fifteen times for 30 s at an 80% amplitude with pause intervals of 30 s. Supernatants of the samples were then centrifuged (Centrifuge 5424 R, Eppendorf, Hamburg, Germany) twice at 4 °C for 15 min at 15,000× g, snap-frozen and kept for later use at −80 °C, whereas the pellets were discarded.
First, both sample types were processed to reach a final percentage of 30% ACN and a concentration of 0.39 µM of the IS, LAMO. […] Calibration curves and quality controls were prepared in their corresponding reaction mixtures to minimize matrix or extraction process effects. The analytical investigations were performed on an Acquity Ultra Performance Liquid Chromatography (UPLC) with sample manager, binary solvent manager, diode array detector and a triple-quadrupole detector (ACQUITY UPLC-triple quadrupole detector, Waters, Milford, CT, USA) equipped with the Masslynx software (version 4.1). […] Separation was accomplished in 6 min, using a flow rate of 0.5 mL/min. The solvent gradient program was set as follows: 85% A/15% B (0–0.5 min); 85–0% A/15–100% B (0.5–3.3 min); 0% A/100% B (3.3–4.4 min); 0–85% A/100–15% B (4.4–4.5 min); 85% A/15% B (4.5–6 min). The column was set at 40 °C and the injection volume was 10 μL. For the mass spectrometric conditions, the following parameters were used in positive ionization mode: capillarity voltage 3.5 kV, extractor voltage 3 V, cone voltage 35 V, Rf lens 0.1 V. The source temperature was set at 120 °C and the desolation temperature at 450 °C. The desolvation gas flow was fixed at 1000 L/h and cone gas flow at 50 L/h. […] The limit of quantification, linearity, matrix effects and specificity of the method developed for each compound were validated based on the European Medicines Agency (EMA) guidelines for bioanalytical method validation and the study from Kislyuk et al..
For the quantification of the metabolites E-CBZ and HPPH, the samples processed were the microsomal incubation reactions (see Section 4.3.2), the zebrafish culture and stock medium (4.2.1) and the zebrafish embryos/larvae extracts (see Section 4.2.3). Samples from the different experiments were also prepared, as for the parent compounds, to reach a final percentage of 30% ACN and a concentration of 0.39 µM of the IS, LAMO.

[3] = CBZ/E-CBZ experiment, 250 µM, 120 hpf, affected/evaluated, replicates 1 and 2
[4] = PHE/HPPH experiment, 250 µM, 120 hpf, affected/evaluated, replicates 1 and 2

SMILES: CC1(C)OC(=O)NC1=O [DMO, dimethadione]
- Teratogenicity on zebrafish development (zebrafish embryos): induced teratogenicity

- Quantified concentration above the nominal concentration ([1]; 250 µM, culture medium): around 20%
- Percentage of quantified compound concentration relatively to the nominal concentration ([1]; CBZ–E-CBZ, Culture medium, nominal 250 µM): 117.3 ± 9.3%
- Morphological differences compared with the controls before 48 hpf ([2]; CBZ 31.25, 85, 250 µM, E-CBZ 250 µM): No statistically significant differences
- Deviation Tail Curve [2, 3]: 1/20
- Malformation Head Deviation Eye [2, 3]: 1/20
- Malformation Head Deviation Mouth [2, 3]: 1/20
- Oedema Head [2, 3]: 1/20
- Oedema Pericardium [2, 3]: 1/20
- Oedema Yolk [2, 3]: 1/20
- Swim Bladder Not Inflated [2, 3]: 3/20 and 6/20 *
SMILES: NC(=O)N1c2ccccc2C2OC2c2ccccc21 (stereo not drawn) [E-CBZ, carbamazepine-10,11-epoxide]
- Significant effect on embryo/larva development after exposure to the metabolite ([2]; 250 µM): delay in swim bladder inflation at 120 hpf for one replicate
- Teratogenicity in zebrafish (conclusion from morphological and analytical assessment) [2]: not teratogenic in zebrafish
- Uptake by embryos and larvae (quantified in homogenate extracts) (zebrafish embryos/larvae): Uptake of the compounds was also observed
- Findings after incubation of zebrafish embryos (zebrafish embryos; 2.6 mg/L (10.3 µM), 3 to 144 hpf): lack of findings

SMILES: O=C1NC(=O)C(c2ccccc2)(c2ccc(O)cc2)N1 (stereo not drawn) [HPPH, 5-(4-hydroxyphenyl)-5-phenylhydantoin]
- Significant effect on embryo/larva development after exposure to the metabolite ([2]; 250 µM): no significant effect
- Deviation Tail Curve [2, 4]: 2/20
- Deviation Tail Tissue Deviation [2, 4]: 1/20
- Malformation Head Deviation Eye [2, 4]: 2/20
- Swim Bladder Not Inflated [2, 4]: 5/20 and 6/20
- Teratogenicity in zebrafish (conclusion from morphological and analytical assessment) [2]: not teratogenic in zebrafish
- Uptake by embryos and larvae (quantified in homogenate extracts) (zebrafish embryos/larvae): Uptake of the compounds was also observed
- Internal concentration, times higher at 24 hpf than at 120 hpf (zebrafish embryos/larvae; all concentrations): ~5 times

SMILES: CN1C(=O)OC(C)(C)C1=O [TMO, trimethadione]
- Teratogenicity on zebrafish development (zebrafish embryos): induced teratogenicity
